These results are taken from patent EP4722219A1 (Gan & Lee Pharmaceuticals Co., Ltd., priority 2023, dated 2024).

Holding throughout (type): cell-based
One assay deals with T1, AR protein (Homo sapiens, UniProt P10275, T878A).
T1 construct: host or cells: LNCaP FGC
T1 sequence (P10275 1-920 T878A): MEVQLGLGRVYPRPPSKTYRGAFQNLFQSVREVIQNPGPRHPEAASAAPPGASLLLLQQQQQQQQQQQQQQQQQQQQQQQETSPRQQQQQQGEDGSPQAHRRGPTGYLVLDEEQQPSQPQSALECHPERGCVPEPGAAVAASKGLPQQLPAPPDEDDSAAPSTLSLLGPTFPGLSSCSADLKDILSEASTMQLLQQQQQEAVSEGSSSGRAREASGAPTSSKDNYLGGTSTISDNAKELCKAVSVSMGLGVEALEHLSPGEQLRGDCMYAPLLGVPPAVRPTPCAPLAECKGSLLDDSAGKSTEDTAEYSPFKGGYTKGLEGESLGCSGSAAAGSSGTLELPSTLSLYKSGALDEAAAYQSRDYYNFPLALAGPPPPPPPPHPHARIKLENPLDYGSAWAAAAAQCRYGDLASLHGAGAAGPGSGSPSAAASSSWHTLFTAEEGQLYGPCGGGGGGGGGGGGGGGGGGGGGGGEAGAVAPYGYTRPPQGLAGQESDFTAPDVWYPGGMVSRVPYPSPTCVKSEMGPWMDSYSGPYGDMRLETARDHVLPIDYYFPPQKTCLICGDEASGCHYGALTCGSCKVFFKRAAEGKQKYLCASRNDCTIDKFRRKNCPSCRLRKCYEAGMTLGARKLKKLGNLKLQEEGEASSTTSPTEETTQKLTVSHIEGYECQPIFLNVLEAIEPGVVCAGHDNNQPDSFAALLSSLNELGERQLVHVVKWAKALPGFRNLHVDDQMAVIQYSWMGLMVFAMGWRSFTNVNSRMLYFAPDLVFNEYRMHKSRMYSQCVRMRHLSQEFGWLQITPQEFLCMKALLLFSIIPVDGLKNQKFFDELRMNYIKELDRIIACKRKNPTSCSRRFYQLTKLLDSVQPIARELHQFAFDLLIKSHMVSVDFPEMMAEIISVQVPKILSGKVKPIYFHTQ
As to the kind of experiment: AR protein degradation in LNCaP cells (Western blot). The note with it: 8 hours; for percent AR protein degradation at a fixed concentration at 0.01 µM / Degradation of AR protein in LNCaP cells, 10 nM (%): 10 nM; for percent AR protein degradation at a fixed concentration at 0.1 µM / Degradation of AR protein in LNCaP cells, 100 nM (%): 100 nM. The method, boiled down: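 LNCaP cells exposed to compound or solvent control for 8 h, lysed in RIPA, protein normalized by BCA. AR detected by SDS-PAGE/Western blot with infrared imaging; band grayscale normalized to GAPDH to calculate AR degradation rate.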
On the technique in general: Immunoblotting shows a protein as a band on a membrane.

Another assay concerns LNCaP cells. Briefly: Inhibition of LNCaP cell proliferation (WST-8). The note with it: LNCaP FGC cells, 96 hours. In a few lines:
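Cells were seeded and cultured overnight at 37 °C, 5% CO2, then exposed for 96 h to compound at 9 concentrations, 5-fold serial dilution from 10 µM final. Viability was read by WST-8 absorbance at 450 nm.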
(In general: Formazan colour is commonly taken as a measure of viable cells.)

A further assay deals with VCaP cells. Briefly: Inhibition of VCaP cell proliferation (WST-8). The note with it: 168 hours. The method, boiled down:
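VCaP cells seeded at 15,000/well in DMEM + 10% FBS, treated next day with nine 5-fold dilutions from 10 µM (final) at 37°C, 5% CO2. Viability read by WST-8 absorbance at 450 nm on day 9.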

A value given as a limit tells only on which side of the number the result lay.

For orientation: IC50 means the midpoint of a concentration-inhibition curve. A higher IC50 goes with weaker potency. On AR protein, `COc1cc(O[C@H]2CC[C@H](NC(=O)c3ccc(N4CCC(N5CCC6(CC5)COc5cc7c(cc56)n(C)c(=O)n7C5CCC(=O)NC5=O)CC4)nn3)CC2)ccc1C#N` (stereo partly drawn) [A-P-18, N-((1r,4r)-4-(4-cyano-3-methoxyphenoxy)cyclohexyl)-6-(4-(3-(2,6-dioxopyridyl-3-yl)-1-methyl-2-oxo-2,3-dihydro-1H,6H-spiro[benzofuro[5,6-d]imidazole-7,4'-piperidin]-1'-yl)piperidin-1-yl)pyridazine-3-carboxamide] returned a percent AR protein degradation at a fixed concentration at 0.01 µM of 43% and a percent AR protein degradation at a fixed concentration at 0.1 µM of 11%. Moreover, the IC50 in the assay on LNCaP cells (Homo sapiens) was 120 µM. The IC50 in the assay on VCaP cells (Homo sapiens) was below 0.0051 nM.

Regarding “(S)-3-((1-(4-(((S)-2-(3-chloro-4-cyanophenyl)-3-methyl-2,8-diazaspiro[4.5]decan-8-yl)phenyl)piperidin-4-yl)methyl)-N-(((S)-2,6-dioxopiperidin-3-yl)-1,2,3,4,4a,5-hexahydrobenzo[b]pyrazi no[1,2-d][1,4]oxazine-8-carboxamide [A-P-57]”, at AR protein, the “Degradation of AR protein in LNCaP cells, 10 nM (%)” value (from here on “Degradation … 10 nM (%)”) turned out to be 39% and the “Degradation of AR protein in LNCaP cells, 100 nM (%)” value (shortened to “Degradation … 100 nM (%)”) is listed as 76%. Besides, the midpoint of inhibition with LNCaP cells, the IC50, lay at 0.67 µM. This molecule also yielded a half-inhibitory concentration (IC50) in the assay with VCaP cells of 3020 nM.

As to `C[C@H]1CC2(CCN(c3ccc(C(=O)N4CCC(CN5CCC6(CCc7cc(C(=O)N[C@H]8CCC(=O)NC8=O)c(F)cc7O6)CC5)CC4)cc3)CC2)CN1c1ccc(C#N)c(Cl)c1` [A-P-35, 1'-((1-(4-((S)-2-(3-chloro-4-cyanophenyl)-3-methyl-2,8-diazaspiro[4.5]decan-8-yl)benzoyl)piperidin-4-yl)methyl)-N-((S)-2,6-dioxopiperidin-3-yl)-7-fluorospiro[chroman-2,4'-piperidin]-6-carboxamide], at AR protein, the percent AR protein degradation at a fixed concentration at 0.01 µM turned out to be 61% and the percent AR protein degradation at a fixed concentration at 0.1 µM is 70%. Besides, 0.28 µM corresponded to half-maximal inhibition with LNCaP cells (Homo sapiens) (IC50). The IC50 in the assay with VCaP cells (Homo sapiens) came out at 4 nM.

`Cn1c(=O)n(C2CCC(=O)NC2=O)c2ccc3c(c21)OCC31CCN(C2CC3(CCN(c4ccc(C(=O)N[C@H]5CC[C@H](Oc6ccc(C#N)c(Cl)c6)CC5)nn4)CC3)C2)CC1` (stereo partly drawn) [A-P-25]: on AR protein, the percent AR protein degradation at a fixed concentration at 0.01 µM turned out to be 58% and the percent AR protein degradation at a fixed concentration at 0.1 µM is 31%. The molecule also came in with an IC50 with LNCaP cells (Homo sapiens) of 47.7 µM. This molecule yielded an IC50 in the assay on VCaP cells (Homo sapiens) of 0.14 nM.

`N#Cc1ccc(O[C@H]2CC[C@H](NC(=O)c3ccc(N4CCC(N5CC6(CCC7(CC6)COc6c7ccc7c6CN(C6CCC(=O)NC6=O)C7=O)C5)CC4)nn3)CC2)cc1Cl` (relative stereo) [A-P-1, N-((1r,4r)-4-(3-chloro-4-cyanophenoxy)cyclohexyl)-6-(4-(7'-(2,6-dioxopiperidin-3-yl)-6'-oxo-7',8'-dihydro-2'-H,6'-H-dihydro[azetidine-3,1'-cyclohexane-4',3"-furo[2,3-e]isoindol]-1-yl)piperidin-1-yl)pyridazine-3-carboxamide]: on AR protein, the “Degradation … 10 nM (%)” value is listed as 66%. Moreover, on AR protein, the “Degradation … 100 nM (%)” value is listed as 48%. Besides, the IC50 was above 10 µM in the assay on LNCaP cells (Homo sapiens) and 0.026 nM with VCaP cells (Homo sapiens).

As to `COc1cc(O[C@H]2C(C)(C)[C@H](NC(=O)c3ccc(N4CCC(CN5CCC6(CCc7cc(C(=O)N[C@H]8CCC(=O)NC8=O)c(F)cc7O6)CC5)(OC)CC4)cc3)C2(C)C)ccc1C#N` [A-P-36], at AR protein, the “Degradation … 10 nM (%)” value stood at 52% and the “Degradation … 100 nM (%)” value stood at 70%. The half-maximal inhibitory concentration (IC50) with LNCaP cells (Homo sapiens) was found to be 0.82 µM. This molecule showed an IC50 in the assay on VCaP cells (Homo sapiens) of 1660 nM.

On to `COc1cc(O[C@H]2CC[C@H](NC(=O)c3ccc(N4CCC(CN5CCC6(CC5)COc5cc7c(cc56)n(C)c(=O)n7C5CCC(=O)NC5=O)CC4)nn3)CC2)ccc1C#N` (relative stereo) [A-P-17], for which, at AR protein, the “Degradation … 10 nM (%)” value was 1% and the “Degradation … 100 nM (%)” value is recorded as -18%. This molecule returned an IC50 with LNCaP cells (Homo sapiens) of 91.2 µM. The same molecule came in with an IC50 with VCaP cells (Homo sapiens) of 72 nM.

In the case of `COc1cc(O[C@H]2C(C)(C)[C@H](NC(=O)c3ccc(N4CCC(C)(CN5CC6(CCC7(CC6)COc6c7ccc7c6CN(C6CCC(=O)NC6=O)C7=O)C5)CC4)cc3)C2(C)C)ccc1C#N` (relative stereo) [A-P-4], at AR protein, the “Degradation … 10 nM (%)” value amounted to 74% and the “Degradation … 100 nM (%)” value is 83%. For the same molecule, the IC50 in the assay with LNCaP cells (Homo sapiens) was 3.52 µM. Further, the midpoint of inhibition with VCaP cells (Homo sapiens), the IC50, lay at 0.19 nM.

For “N-(1r,4r)-4-(3-chloro-4-cyanophenoxy)cyclohexy 1)-6-(4-(7-(2,6-dioxopiperidin-3-yl))-6-oxo-7,8-dihydro-2H,6H-dipyrido[2,3-e]isoindole-3,1'-cyclohexane-4',4‴-piperidin]-1"-yl)pyridazine-3-carboxamide [A-P-32]”, at AR protein, the “Degradation … 10 nM (%)” value came to 12% and the “Degradation … 100 nM (%)” value worked out at 46%. In the assay with LNCaP cells, the IC50 worked out at 0.57 µM. In addition, the IC50 in the assay with VCaP cells came to 1230 nM.

`COc1cc(O[C@H]2C(C)(C)[C@H](NC(=O)c3ccc(N4CCC(CN5CCN(c6ccc(C(=O)N[C@H]7CCC(=O)NC7=O)c(F)c6)CC5)CC4)cc3)C2(C)C)ccc1C#N` [ARV-766, reference compound]: at AR protein, the “Degradation … 10 nM (%)” value is 49% and the “Degradation … 100 nM (%)” value turned out to be 78%. In the assay on LNCaP cells, the IC50 amounted to 1.07 µM. In the assay on VCaP cells, it took 779 nM to reach half-maximal inhibition (IC50).

In the case of `Cn1c(=O)n(C2CCC(=O)NC2=O)c2cc3c(cc21)C1(CCN(CC2CCN(c4ccc(C(=O)N[C@H]5CC[C@H](Oc6ccc(C#N)c(Cl)c6)CC5)nn4)CC2)CC1)CO3` (stereo partly drawn) [A-P-10], the percent AR protein degradation at a fixed concentration at 0.01 µM on AR protein came out at 47%. The same molecule returned a percent AR protein degradation at a fixed concentration at 0.1 µM at AR protein of 5%. Also, the IC50 with LNCaP cells (Homo sapiens) worked out at 137 µM; in the assay with VCaP cells (Homo sapiens) it was 6 nM.

On to `COc1cc(O[C@H]2C(C)(C)[C@H](NC(=O)c3ccc(N4CCC5(CC4)CC(N4CCC6(CC4)COc4cc7c(cc46)n(C)c(=O)n7C4CCC(=O)NC4=O)C5)nn3)C2(C)C)ccc1C#N` (relative stereo) [A-P-14, N-((1r,3r)-3-(4-cyano-3-methoxyphenoxy)-2,2,4,4-tetramethylcyclobutyl)-6-(2-(3-(2,6-dioxopiperidin-3-yl)-1-methyl-2-oxo-2,3-dihydro-1H,6H-spiro[benzofuro[5,6-d]imidazole-7,4'-piperidin]-1'-yl)-7-azaspiro[3.5]nonan-7-yl)pyridazine-3-carboxamide], for which the “Degradation … 10 nM (%)” value at AR protein came out at 36%. Further, at AR protein, the “Degradation … 100 nM (%)” value is 32%. In addition, the IC50 in the assay with LNCaP cells (Homo sapiens) was determined as 1.1 µM; in the assay with VCaP cells (Homo sapiens) it was 2.2 nM.

For the molecule `COc1cc(O[C@H]2CC[C@H](NC(=O)c3ccc(N4CCC(CN5CCC6(CC5)COc5c6ccc6c5n(C)c(=O)n6C5CCC(=O)NC5=O)CC4)nn3)CC2)ccc1C#N` (stereo partly drawn) [A-P-22], at AR protein, the percent AR protein degradation at a fixed concentration at 0.01 µM stood at 48%. Also, the percent AR protein degradation at a fixed concentration at 0.1 µM on AR protein amounted to 25%. Also, the IC50 with LNCaP cells (Homo sapiens) was determined as 47.6 µM; with VCaP cells (Homo sapiens), 0.026 nM.

In the case of `Cn1c(=O)n(C2CCC(=O)NC2=O)c2ccc3c(c21)OCC31CCN(C2CCN(c3ccc(C(=O)N[C@H]4CC[C@H](Oc5ccc(C#N)c(Cl)c5)CC4)nn3)CC2)CC1` (stereo partly drawn) [A-P-23], on AR protein, the percent AR protein degradation at a fixed concentration at 0.01 µM is 37% and the percent AR protein degradation at a fixed concentration at 0.1 µM came to 14%. Inhibition in the assay with LNCaP cells (Homo sapiens) was half-maximal at 22.4 µM (IC50). Further, 0.046 nM corresponded to half-maximal inhibition with VCaP cells (Homo sapiens) (IC50).

In the case of `COc1cc(O[C@H]2C(C)(C)[C@H](NC(=O)c3ccc(N4CCC(F)(CN5CCC6(CC5)COc5cc7c(cc56)n(C)c(=O)n7C5CCC(=O)NC5=O)CC4)cc3)C2(C)C)ccc1C#N` (stereo partly drawn) [A-P-13], the percent AR protein degradation at a fixed concentration at 0.01 µM at AR protein worked out at 32%. This molecule gave a percent AR protein degradation at a fixed concentration at 0.1 µM at AR protein of 35%. Moreover, the IC50 with LNCaP cells (Homo sapiens) was found to be 61 µM; in the assay on VCaP cells (Homo sapiens), 4.3 nM.
